Experimental data taken from BindingDB's records for doi:10.1016/j.bmc.2010.06.094 (Shahid Beheshti University of Medical Sciences, 2010).

Assays:
[1] = target: Prostaglandin G/H synthase 1 / COX-1 (Ovis aries) (UniProt P05979); experiment: Inhibition of sheep COX1
[2] = target: Prostaglandin G/H synthase 2 / COX-2 (Ovis aries) (UniProt P79208); experiment: Inhibition of sheep COX2

IC50 [1]	IC50 [2]	Structure (SMILES)
24.4 µM	0.077 µM	CS(=O)(=O)c1ccc(-c2cc(C(=O)O)c3cc(C(=O)c4ccccc4)ccc3n2)cc1 [6-benzoyl-2-(4-(methylsulfonyl)phenyl)quinoline-4-carboxylic acid]
> 100 µM	0.077 µM	[N-]=[N+]=Nc1ccc(-c2cc(C(=O)O)c3cc(C(=O)c4ccccc4)ccc3n2)cc1 [2-(4-azido)phenyl)-6-benzoyl-quinoline-4-carboxylic acid]
13.4 µM		CS(=O)(=O)c1ccc(-c2cc(C(=O)O)c3ccccc3n2)cc1 [2-(4-(methylsulfonyl)phenyl)-quinoline-4-carboxylic acid]
15.9 µM	0.069 µM	CS(=O)(=O)c1ccc(-c2cc(C(=O)O)c3cccc(C(=O)c4ccccc4)c3n2)cc1 [8-benzoyl-2-(4-(methylsulfonyl)phenyl)quinoline-4-carboxylic acid]
21.8 µM	0.085 µM	CC(=O)Nc1ccc(-c2cc(C(=O)O)c3cc(C(=O)c4ccccc4)ccc3n2)cc1 [2-(4-acetamido)phenyl)-6-benzoyl-quinoline-4-carboxylic acid]
65.5 µM	0.057 µM	[N-]=[N+]=Nc1ccc(-c2cc(C(=O)O)c3cccc(C(=O)c4ccccc4)c3n2)cc1 [2-(4-azido)phenyl)-8-benzoyl-quinoline-4-carboxylic acid]
9.2 µM	0.08 µM	CC(=O)Nc1ccc(-c2cc(C(=O)O)c3cccc(C(=O)c4ccccc4)c3n2)cc1 [2-(4-acetamido)phenyl)-8-benzoyl-quinoline-4-carboxylic acid]
